Data on one sequence can be found in article PMC5431435, “A short artificial antimicrobial peptide shows potential to prevent or treat bone infections” (Scientific Reports, 2017).

One data set concerns S. aureus. As to the kind of experiment: Effect of FCS on AMP2 activity. As to conditions: for bacterial growth: then 3 h with S. aureus, mean ± StD, n = 3. In kind it is cell-based, Staphylococcus aureus. How it is done:
In a further experiment the possible effect of serum on AMP activity was investigated. AMP2 (67 µg/ml) was preincubated for 2 hours at 37 °C with different concentrations of FCS and then added to S. aureus.
In addition, the influence of fetal calf serum (FCS, containing 17 g/l albumin; Biochrom, Germany) on AMP activity was determined by preincubating 67 µg/ml of the AMP2 with 0–10% FCS at 37 °C for 2 hours followed by incubation with S. aureus for 3 hours. The control group, without AMP, was FCS free (n = 3).

Data set [1] concerns human primary osteoblast-like cells. The data set is classed as cell-based. How it is done: (1) For the cytotoxicity test, 1 × 10^4 cells were seeded in 48-well plates with cultivation medium (CM) DMEM/Ham’s F-12 (D/H; Biochrom, Germany) + 10% fetal calf serum (FCS; Biochrom, Germany) + 1% penicillin/streptomycin (P/S; Biochrom, Germany) + 0.05 mM L-ascorbic-2 phosphate (L-Asc) + 0.05 mM β-glycerolphosphate (β-Glyc) and incubated overnight at 37 °C, 5% CO2 and 95% relative humidity. After adding the AMPs (3–542 µg/ml - depending on the AMP) or gentamicin (8–1024 µg/ml) in CM with 1% FCS, without Pen/Strep, cells were cultured for three days. Cell viability was determined with an AlamarBlue® assay before adding the AMPs and after 3 days. Alkaline phosphatase activity was measured on day 3.
Alamar Blue® (Biozol, Germany) was done according to the manufacturer’s instruction.

For data set [2], the system named is S. aureus internalized in human primary osteoblast-like cells. As to the kind of experiment: Effect against internalized bacteria. In kind it is cell-based, Staphylococcus aureus. Conditions: CM with 1% FCS, n = 7. How it is done: Human primary osteoblast-like cells were cultivated in 24-well plates with cultivation medium until they reached a minimum confluence of 80%. For the experiment, cells were washed and S. aureus (ATCC 29213) in cultivation medium added (~2 × 10^7 cfu/ml). After an incubation of 45 minutes, extracellular bacteria were killed using 200 µg/ml gentamicin dissolved in CM with 10% FCS, without P/S. After 1 hour incubation, gentamicin solution was removed, cells washed three times and AMP2 (33 and 67 µg/ml) in CM with only 1% FCS + no P/S added for 4 and 24 hours. As reference, 7.5 µg/ml rifampicin was used. All incubation steps were done in an incubator with 37 °C, 95% humidity and 5% CO2. For determination of the internalized bacteria, cells were lysed and the supernatant plated on CA plates. Experiment were done with n = 7.

The subject of a further data set is S. epidermidis biofilms. As to the kind of experiment: FISH of biofilm grown on polyurethane waver. As to conditions: n = 10 pictures. The data set is classed as cell-based, Staphylococcus epidermidis. How it is done: Fluorescence in situ hybridization (FISH) was used to visualize the effect of the AMP2 on a biofilm. S. epidermidis (PIA 8400) biofilm was grown on 5 × 8 mm polyurethane (PU) waver (Epurex Films, Germany) in the incubator at 37 °C for 72 hours under aerobic conditions. After biofilm formation, medium was replaced by MH^++ medium containing different concentrations of the AMP2 (4 or 8 µg/ml) or phosphate buffered saline as control. After further 24 hours of incubation on a rotation shaker, waver were removed, fixed and embedded in methylmethacrylate (Technovit 8100, Kulzer, Germany) and sectioned as described elsewhere. To visualize the biofilm, samples were stained with nucleic acid stain DAPI and the Cy3-labeled Staphylococcus-specific FISH-probe STAPHY (5′[…]3′, biomers, Germany) as published, [52]. A nonsense probe NON338 labeled in Cy5 was used to exclude unspecific probe binding. After incubation in a dark, humid chamber for 2 hours at 50 °C, the slides were rinsed with sterile water, dried, and mounted using Vectashield mounting medium (Vector Laboratories, Burlingame, CA). Image analysis was done using an epifluorescence microscope (Axioplan 2; Carl Zeiss, Jena, Germany) equipped with narrow band filter sets (AHF Analysentechnik, Germany). Image acquisition was performed with an AxioCam MRm (Zeiss, Germany) making use of the AxioVision 4.4 software. Digital image analysis was performed with the daime software. Per group 10 pictures were randomly chosen and analyzed.

For a further data set, the system named is planktonic S. aureus. In words: MIC by isothermal microcalorimetry, planktonic bacteria. The data set is classed as cell-based, Staphylococcus aureus. Conditions: all three tested bouillons (MH++, MH+, MH−), heat flow 24 hours, n = 3. How it is done:
Mueller-Hinton II bouillon with adjusted cations (MH^++; BBL, Germany), Mueller-Hinton bouillon with low cations (MH^+; with 3-4 mg/l Ca^2+ and 5-6 mg/l Mg^2+; Oxoid, Germany) and Mueller-Hinton bouillon without cations (MH^-; Merck, Germany). AMP2 concentrations of 2-33 μg/ml were tested with the three different bouillons and gentamicin concentrations of 0.125-2 μg/ml were analyzed with MH^++. Staphylococcus aureus (ATCC 29213, 300 μl with 10^5 cfu/ml) was added to each microcalorimetry glass ampoule (Waters; […] The ampoules were hermetically sealed and heat flow (W) was measured for 24 hours in the calorimeter TAM III (TA Instruments, USA). […] ROBU […], Germany) in MH^++ bouillon at 37 °C in an aerobe atmosphere for 24 hours. […] Beads were washed again and added to the glass ampoule with fresh MH^++ bouillon. The total heat (J) was measured for 48 hours in the calorimeter. A concentration, which inhibits minimum 90% of biofilm, can be defined as the minimal biofilm inhibitory concentration (MICB). All samples were tested with n = 6.

The test system of the next data set is S. aureus (ATCC 29213). As to the kind of experiment: Zone of inhibition test of PDLLA-coated titanium wires. In kind it is cell-based, Staphylococcus aureus. As to conditions: 10, 20, 30% w/w in poly(D,L-lactide) coating, n = 3. How it is done: Titanium wires (diameter 1 mm, Synthes, USA) were coated with Poly(D,L-lactide) (PDLLA, Boehringer Ingelheim, Germany) and incorporated AMP2 at three different concentrations: 10% w/w, 20% w/w, or 30% w/w. Gentamicin/PDLLA (10% w/w) or PDLLA coated wires served as control. Briefly, 100 mg PDLLA was solved in 1.5 ml ethyl acetate and the wires were coated in a dipping procedure. Details of the coating were described previously. Three nails of each group were placed on Mueller-Hinton agar plates plated with S. aureus (ATCC 29213) and the zone of inhibition (ZOI) was quantified after 1, 3, 7, and 14 days using ImageJ software.

Setting [3] is: 4 µg/ml AMP2, 24 h in MH++ on 72 h biofilm.

As to “KRRWRIWLV [AMP2, 9mer cationic antimicrobial peptide … from an optimized peptide library]”, the bacterial growth in the data set on S. aureus (AMP2 67 µg/ml preincubated 2 h at 37 °C with 0% FCS) is 7 ± 9 cfu/ml; with S. aureus (AMP2 67 µg/ml preincubated 2 h at 37 °C with 0.1% FCS), 37 ± 13 cfu/ml; in the data set with S. aureus (AMP2 67 µg/ml preincubated 2 h at 37 °C with 1% FCS) it was 553 ± 255 cfu/ml; in the data set on S. aureus (AMP2 67 µg/ml preincubated 2 h at 37 °C with 10% FCS), 2,078 ± 540 cfu/ml. Besides, the “bacterial growth compared to the group without AMP” value in the data set with S. aureus (AMP2 67 µg/ml, 10% FCS) is reported as “less than 2%”. For the same sequence, the “concentrations with no negative effect on cell viability” value in data set [1] was < 267 µg/mL. For the same sequence, the “concentrations with significant inhibition of viability compared to the control group” value in data set [1] is ≥ 267 µg/mL. Further, the “internalized bacteria compared to 0 μg/ml AMP [= 100%]” value in data set [2] (33 μg/ml, 4 h) was determined as 39%; in data set [2] (33 μg/ml, 24 h) it was 3%; in data set [2] (67 μg/ml, 4 h), 16%; in data set [2] (67 μg/ml, 24 h), 0.18%. In addition, the “reduction of FISH-positive (Cy3) area” value with S. epidermidis biofilms (setting [3]) turned out to be 86%; in the data set with S. epidermidis biofilms (8 µg/ml AMP2, 24 h in MH++ on 72 h biofilm) it was 90%. Also, in the data set on S. epidermidis biofilms (setting [3]), the “reduction of the biofilm area (DAPI) compared to the untreated group” value is “up to 76%”. Further, in the data set with planktonic S. aureus, the “MIC (calorimetry)” value is 8 µg/mL. In addition, the “Zone of Inhibition, activity of incorporated peptide” value in the data set with S. aureus (ATCC 29213) is “inhibited the growth of S. aureus in a dose dependent manner”.
